Assay results published in PubChem BioAssay AID1918994 (Molecular Pharmacology Branch, DTP, NCI, 2023).

Test system: 292921-168-R-J2-PDC complex spheroid growth
Test: Anticancer human tumor 292921-168-R-J2-PDC patient-derived pancreatic carcinoma cell line growth inhibition [AhR]
Conditions: for IC50: curve of first compound; for viability, T/C: stronger effect = lower value
Excerpt: Multicellular complex tumor spheroid response to aryl hydrocarbon receptor antagonists in combination with a variety of drugs and investigational agents in selected tumor cell lines
The current study was undertaken to assess response to aryl hydrocarbon receptor antagonists in combination with standard-of-care drugs and investigational agents in solid tumor complex spheroid models. Complex spheroids include a stromal component modeled by human endothelial cells (HUVEC) and fibroblasts modeled by human mesenchymal stem cells (MSCs). The concentration ranges selected for each drug and investigational agent were based upon clinically achievable concentrations if the clinical Cmax of the agent was known.
Compounds. The drugs and investigational agents: BAY 2416964 (NSC825713), GNF351 (NSC835774), CH-223191 (NSC835775), CPI-455 (NSC825282), aza-TdCyd (NSC777586), decitabine (NSC127716), belinostat (NSC758774), entinostat (NSC756642), pevonedistat (NSC761192), tazemetostat (NSC777109), talazoparib (NSC765396), olaparib (NSC753686), selinexor (NSC780203), nedisertib (M3814, NSC802822), bortezomib (NSC756655), venetoclax (NSC766270), doxorubicin (NSC123127), elimusertib (BAY189344, NSC800525), ceralasertib (AZD6738, NSC777638), TAK-243 (NSC785004), alisertib (NSC759677), etoposide (NSC141540), topotecan (NSC609699), eribulin (NSC707389), gemcitabine (NSC613327), carboplatin (NSC241240), cisplatin (NSC119875), and SN-38 (NSC673596) were obtained from the National Cancer Institute (NCI) Developmental Therapeutics Program Chemical Repository (32). The FDA-approved anticancer drug set is available from the Developmental Therapeutics Program at https://dtp.cancer.gov/organization/dscb/obtaining/available plates.htm. […] The stock solutions were prepared in dimethyl sulfoxide (DMSO, Sigma-Aldrich, St. Louis, MO, cat. D2650), except for the platinum compounds which were prepared in saline (Quality Biological, Gaithersburg, MD, cat. 114-055-101), at 800-fold the tested concentration and stored at -70 degrees C prior to their use. All drugs and investigational agents were tested over a range starting from a high concentration at or near the clinical Cmax and decreasing in half-log increments. If the clinical Cmax for an agent had not been determined, the highest concentration tested was 10 microM (Table 1).
Cell Culture. All cells were maintained in an incubator at 37 degrees C and 5% CO2 with 95% humidity. The PDC lines were cultured according to standard operating procedures established by the NCI PDMR (https://pdmr.cancer.gov). Briefly, all PDCs were thawed and cultured in Matrigel-coated flasks prepared with a working solution of 1X Ham's F-12 nutrient mix, without supplementation (Invitrogen, Waltham, MA, cat. 11765054), 100 U/mL penicillin-streptomycin (Invitrogen, cat. 15140122), and 2.5% Matrigel (Corning Inc., Corning, NY, cat. 354248) for the first three passages. All PDCs were cultured in complete DMEM/F-12 media containing advanced DMEM/F-12 (Invitrogen, cat. 12634028), 4.9% defined fetal bovine serum, heat inactivated (HyClone Laboratories Inc., Logan, UT, cat. SH30070.03HI), 389 ng/mL hydrocortisone (Sigma-Aldrich, cat. H4001), 9.7 ng/mL human EGF recombinant protein (Invitrogen, cat. PHG0313), 23.4 microg/mL adenine (Sigma-Aldrich, cat. A2786), 97.3 U/mL penicillin-streptomycin (Invitrogen, cat. 15140122), 1.9 mM L-glutamine (Invitrogen, cat. 25030081), and 9.7 microM Y-27632 dihydrochloride (Tocris Bioscience, Bristol, United Kingdom, cat. 1254). The PDCs were cultured in complete DMEM/F12 media without 10 microM Y-27632 dihydrochloride for at least two passages prior to the screen. The established cell lines NCI-H1341 and […] were cultured in DMEM/F-12, HEPES (Invitrogen, cat. 11330032), 5% defined fetal bovine serum (HyClone Laboratories Inc., cat. SH30070.03), ITS premix universal culture supplement [insulin (5 microg/mL), transferrin (5 microg/mL), and selenious acid (5 ng/mL)] […]

[1] = second compound 0.1 µM, first compound 0.0316 µM
[2] = second compound 0.1 µM, first compound 0.1 µM
[3] = second compound 0.1 µM, first compound 0.316 µM
[4] = second compound 0.1 µM, first compound 1 µM
[5] = second compound 0.1 µM, first compound 3.16 µM
[6] = second compound 0.1 µM, first compound 10 µM
[7] = second compound 0.316 µM, first compound 0.0316 µM
[8] = second compound 0.316 µM, first compound 0.1 µM
[9] = second compound 0.316 µM, first compound 0.316 µM
[10] = second compound 0.316 µM, first compound 1 µM
[11] = second compound 0.316 µM, first compound 3.16 µM
[12] = second compound 0.316 µM, first compound 10 µM
[13] = second compound 1 µM, first compound 0.0316 µM
[14] = second compound 1 µM, first compound 0.1 µM
[15] = second compound 1 µM, first compound 0.316 µM
[16] = second compound 1 µM, first compound 1 µM
[17] = second compound 1 µM, first compound 3.16 µM
[18] = second compound 1 µM, first compound 10 µM
[19] = second compound 3.16 µM, first compound 0.0316 µM
[20] = second compound 3.16 µM, first compound 0.1 µM
[21] = second compound 3.16 µM, first compound 0.316 µM
[22] = second compound 3.16 µM, first compound 1 µM
[23] = second compound 3.16 µM, first compound 3.16 µM
[24] = second compound 3.16 µM, first compound 10 µM
[25] = second compound 10 µM, first compound 0.0316 µM
[26] = second compound 10 µM, first compound 0.1 µM
[27] = second compound 10 µM, first compound 0.316 µM
[28] = second compound 10 µM, first compound 1 µM
[29] = second compound 10 µM, first compound 3.16 µM
[30] = second compound 10 µM, first compound 10 µM
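Note: spheroids exposed to compounds for seven days after three days of growth.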

Nc1ccn(C2OC(CO)C(O)C2(F)F)c(=O)n1 (stereo not given) + Cc1cncc(-c2nc(NCCc3c[nH]c4ccccc34)c3ncn(C(C)C)c3n2)c1
IC50 (second compound 0.1 µM): < 0.0316 µM
IC50 (second compound 0.316 µM): < 0.0316 µM
IC50 (second compound 1 µM): < 0.0316 µM
IC50 (second compound 3.16 µM): < 0.0316 µM
IC50 (second compound 10 µM): < 0.0316 µM
viability, T/C [1]: 8.94%
viability, T/C [2]: 10.1%
viability, T/C [3]: 9.38%
viability, T/C [4]: 9.84%
viability, T/C [5]: 9.57%
viability, T/C [6]: 7.01%
viability, T/C [7]: 10.2%
viability, T/C [8]: 9.23%
viability, T/C [9]: 9.06%
viability, T/C [10]: 8.59%
viability, T/C [11]: 9.76%
viability, T/C [12]: 6.34%
viability, T/C [13]: 12%
viability, T/C [14]: 9.47%
viability, T/C [15]: 9.26%
viability, T/C [16]: 9.49%
viability, T/C [17]: 8.78%
viability, T/C [18]: 7.47%
viability, T/C [19]: 13.8%
viability, T/C [20]: 12.3%
viability, T/C [21]: 10.2%
viability, T/C [22]: 11.6%
viability, T/C [23]: 11.6%
viability, T/C [24]: 8.76%
viability, T/C [25]: 29.8%
viability, T/C [26]: 21.1%
viability, T/C [27]: 19.3%
viability, T/C [28]: 15.2%
viability, T/C [29]: 15.8%
viability, T/C [30]: 13.4%

CC1(C)CCC(CN2CCN(c3ccc(C(=O)NS(=O)(=O)c4ccc(NCC5CCOCC5)c([N+](=O)[O-])c4)c(Oc4cnc5[nH]ccc5c4)c3)CC2)=C(c2ccc(Cl)cc2)C1 + Cc1cncc(-c2nc(NCCc3c[nH]c4ccccc34)c3ncn(C(C)C)c3n2)c1
IC50 (second compound 0.1 µM): 6.87 µM
IC50 (second compound 0.316 µM): 6.72 µM
IC50 (second compound 1 µM): 6.79 µM
IC50 (second compound 3.16 µM): 5.56 µM
IC50 (second compound 10 µM): 3.33 µM
viability, T/C [1]: 101%
viability, T/C [2]: 96.2%
viability, T/C [3]: 92.9%
viability, T/C [4]: 105%
viability, T/C [5]: 99.4%
viability, T/C [6]: 26.2%
viability, T/C [7]: 96.6%
viability, T/C [8]: 104%
viability, T/C [9]: 105%
viability, T/C [10]: 90.6%
viability, T/C [11]: 95.1%
viability, T/C [12]: 26.1%
viability, T/C [13]: 80.2%
viability, T/C [14]: 91.7%
viability, T/C [15]: 90.1%
viability, T/C [16]: 96.5%
viability, T/C [17]: 102%
viability, T/C [18]: 28.6%
viability, T/C [19]: 67.9%
viability, T/C [20]: 76.3%
viability, T/C [21]: 80.6%
viability, T/C [22]: 77.6%
viability, T/C [23]: 79.7%
viability, T/C [24]: 22.3%
viability, T/C [25]: 54.9%
viability, T/C [26]: 52.7%
viability, T/C [27]: 52.9%
viability, T/C [28]: 50%
viability, T/C [29]: 51.4%
viability, T/C [30]: 26.8%
